Measurements from patent publication US20150105252A1, “SUBSTITUTED PYRAZOLES AS HERBICIDES” (E I DU PONT DE NEMOURS AND COMPANY, priority 2013, published 2015).

Assays:
canarygrass = test: Test C postemergence; assay type: in vivo, Phalaris minor; conditions: for Canarygrass plant response rating: scale 0 to 100
Source text: (§1) Seeds of plant species selected from blackgrass (Alopecurus myosuroides), ryegrass, Italian (Italian ryegrass, Lolium multiflorum), wheat (winter wheat, Triticum aestivum), galium (catchweed bedstraw, Galium aparine), corn (Zea mays), crabgrass, large (large crabgrass, Digitaria sanguinalis), foxtail, giant (giant foxtail, Setaria faberii), johnsongrass (Sorghum halepense), lambsquarters (Chenopodium album), morningglory (Ipomoea coccinea), nutsedge, yellow (yellow nutsedge, Cyperus esculentus), pigweed (redroot pigweed, Amaranthus retroflexus), ragweed (common ragweed, Ambrosia elation), soybean (Glycine max), barnyardgrass (Echinochloa crus-galli), oilseed rape (Brassica napus), waterhemp (common waterhemp, Amaranthus rudis), oat, wild (wild oat, Avena fatua), kochia (Kochia scoparia), Surinam grass (Brachiaria decumbens), foxtail, green (green foxtail, Setaria viridis), goosegrass (Eleusine indica), bromegrass, downy (downy bromegrass, Bromus tectorum), nightshade (eastern black nightshade, Solanum ptycanthum), cocklebur (common cocklebur, Xanthium strumarium), cupgrass, woolly (woolly cupgrass, Eriochloa villosa), bermudagrass (Cynodon dactylon), sunflower, (common oilseed sunflower, Helianthus annuus), Russian thistle (Salsola kali), and velvetleaf (Abutilon theophrasti) were planted into a blend of loam soil and sand and treated preemergence with test chemicals formulated in a non-phytotoxic solvent mixture which included a surfactant.
(§2) At the same time, plants selected from these crop and weed species and also chickweed (common chickweed, Stellaria media), canarygrass (littleseed canarygrass, Phalaris minor), and deadnettle (henbit deadnettle, Lamium amplexicaule), were planted in pots containing Redi-Earth® planting medium (Scotts Company, 14111 Scottslawn Road, Marysville, Ohio 43041) comprising spaghnum peat moss, vermiculite, wetting agent and starter nutrients and treated with postemergence applications of test chemicals formulated in the same manner. Plants ranged in height from 2 to 18 cm (1- to 4-leaf stage) for postemergence treatments. Treated plants and controls were maintained in a greenhouse for 13 to 15 days, after which time all species were compared to controls and visually evaluated. Plant response ratings, summarized in Table C, are based on a scale of 0 to 100 where 0 is no effect and 100 is complete control. A dash (-) response means no test result.

foxtail, green [1] = test: Test C postemergence; assay type: in vivo, Setaria viridis; conditions: for Foxtail, Green plant response rating: scale 0 to 100
Source text: as §1, §2

foxtail, green [2] = test: Test C preemergence; assay type: in vivo, Setaria viridis; conditions: for Plant response rating (scale of 0 to 100), Foxtail, Green: Preemergence, 250 g ai/ha; for Foxtail, Green plant response rating / Plant response rating, Foxtail, Green: preemergence; for Plant response rating, Foxtail, Green: 62 g ai/ha, scale 0 to 100, 0 = no effect, 100 = complete control
Source text: as §1, §2

common waterhemp = test: Test F preemergence; assay type: in vivo, Amaranthus rudis
Source text: (§3) Seeds of plant species selected from corn (Zea mays), soybean (Glycine max), velvetleaf (Abutilon theophrasti), lambsquarters (Chenopodium album), wild poinsettia (Euphorbia heterophylla), pigweed, palmer (palmer pigweed, Amaranthus palmeri), common waterhemp (Amaranthus rudis), surinam grass (Brachiaria decumbens), large crabgrass (Digitaria sanguinalis), crabgrass, Brazil (Brazilian crabgrass, Digitaria horizontalis), fall panicum (Panicum dichotomiflorum), giant foxtail (Setaria faberii), green foxtail (Setaria viridis), goosegrass (Eleusine indica), johnsongrass (Sorghum halepense), common ragweed (Ambrosia elation), barnyardgrass (Echinochloa crus-galli), southern sandbur (Cenchrus echinatus), arrowleaf sida (Sida rhombifolia), Italian ryegrass (Lolium multiflorum), dayflower, VA (Virginia (VA) dayflower, Commelina virginica), field bindweed (Convolvulus arvensis), cocklebur (common cocklebur, Xanthium strumarium), morningglory (Ipomoea coccinea), nightshade (eastern black nightshade, Solanum ptycanthum), kochia (Kochia scoparia), yellow nutsedge (Cyperus esculentus), and hairy beggarticks (Bidens pilosa), were planted into a silt loam soil and treated preemergence with test chemicals formulated in a non-phytotoxic solvent mixture which included a surfactant.
(§4) At the same time, plants from these crop and weed species and also horseweed (Canada horseweed, Conyza canadensis), smartweed (ladysthumb smartweed, Polygonum persicaria), waterhemp_RES1, (ALS & Triazine resistant common waterhemp, Amaranthus rudis), and waterhemp_RES2, (ALS & HPPD resistant common waterhemp, Amaranthus rudis) were treated with postemergence applications of test chemicals formulated in the same manner. Plants ranged in height from 2 to 18 cm for postemergence treatments (1- to 4-leaf stage). Treated plants and controls were maintained in a greenhouse for 14 to 21 days, after which time all species were compared to controls and visually evaluated. Plant response ratings, summarized in Table F, are based on a scale of 0 to 100 where 0 is no effect and 100 is complete control. A dash (-) response means no test result.

large crabgrass = test: Test F preemergence; assay type: in vivo, Digitaria sanguinalis
Source text: as §3, §4

blackgrass = test: Test A postemergence; assay type: in vivo, Alopecurus myosuroides
Summary of the method: (§5)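 Greenhouse test in loam soil/sand blend; compounds formulated in non-phytotoxic solvent with surfactant, applied as preemergence directed soil spray or postemergence to plants 2–10 cm tall at one- to two-leaf stage. Injury rated visually versus untreated controls after approximately 10 days on a 0 (no effect) to 100 (complete control) scale.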

galium = test: Test A postemergence; assay type: in vivo, Galium aparine
Summary of the method: as §5

kochia = test: Test A preemergence; assay type: in vivo, Kochia scoparia
Summary of the method: as §5

[3] = postemergence, 250 g ai/ha, scale 0 to 100 (0 no effect, 100 complete control)
[4] = postemergence, 62 g ai/ha, scale 0 to 100, 0 no effect, 100 complete control
[5] = postemergence, 125 g ai/ha, scale 0 to 100, 0 no effect, 100 complete control
[6] = 31 g ai/ha, scale 0 to 100 (0 no effect, 100 complete control), 13 to 15 days
[7] = 125 g ai/ha, scale 0 to 100, 0 is no effect, 100 is complete control
[8] = Preemergence, 31 g ai/ha, scale 0 to 100
[9] = Preemergence, 62 g ai/ha, scale 0 to 100
[10] = Preemergence, 125 g ai/ha, scale 0 to 100
[11] = preemergence, 8 g ai/ha, scale 0 to 100, 100 is complete control
[12] = preemergence, 16 g ai/ha, scale 0 to 100, 100 is complete control
[13] = Postemergence, 500 g ai/ha, 0 to 100 scale (0 no effect, 100 complete control)
[14] = postemergence, 125 g ai/ha, about 10 days, visual rating on 0 to 100 scale (0 no effect, 100 complete control)
[15] = 125 g ai/ha, visual injury, 0 to 100 scale, approx. 10 days
[16] = 500 g ai/ha, visual injury after approx. 10 days, 0 to 100 scale (0 no effect, 100 complete control)
[17] = Preemergence, 250 g ai/ha, scale 0 to 100

Row | Structure (SMILES) | Canarygrass plant response rating (canarygrass; Postemergence, 31 g ai/ha) | Plant response rating, Canarygrass (canarygrass; [3]) | Plant response rating, Canarygrass (canarygrass; [5]) | Foxtail, Green plant response rating (foxtail, green [1]; Postemergence, 31 g ai/ha) | Plant response rating, Foxtail, Green (foxtail, green [1]; [3]) | Plant response rating, Foxtail, Green (foxtail, green [1]; [5]) | Blackgrass plant response rating (blackgrass; [13]) | Blackgrass plant response rating (blackgrass; [14]) | Galium plant response rating (galium; [13]) | Galium plant response rating (galium; [14]) | Kochia plant response rating (kochia; [15]) | Kochia plant response rating (kochia; [16]) | further results
1 | CCc1cc(C(=O)NCC(F)(F)F)nn1Cc1cccc(OC(F)(F)F)c1 [Compound 20] | 5 | 15 | 15 | 20 | 60 | 55 | – | – | – | – | – | – | Plant response rating, Canarygrass (canarygrass; [4]): 10; Plant response rating, Foxtail, Green (foxtail, green [1]; [4]): 30
2 | CCCNC(=O)c1cc(CC)n(Cc2cccc(OC(F)(F)F)c2)n1 [Compound 27] | 5 | 10 | 10 | 25 | 50 | 30 | – | – | – | – | – | – | Plant response rating, Canarygrass (canarygrass; [4]): 5; Plant response rating, Foxtail, Green (foxtail, green [1]; [4]): 30
3 | CCc1cc(C(=O)NOC(C)C)nn1Cc1cccc(OC(F)(F)F)c1 [Compound 70] | 0 | 60 | 15 | – | 80 | 80 | – | – | – | – | – | – | Plant response rating, Canarygrass (canarygrass; [4]): 5; Plant response rating (scale of 0 to 100), Foxtail, Green (foxtail, green [2]): 98; Foxtail, Green plant response rating (foxtail, green [2]; [6]): 15; Plant response rating, Foxtail, Green (foxtail, green [2]; 13 to 15 days): 95; Foxtail, Green plant response rating (foxtail, green [2]; [7]): 95; Plant response rating, Foxtail, Green (foxtail, green [1]; [4]): 5
4 | CCONC(=O)c1cc(CC)n(Cc2cccc(OC(F)(F)F)c2)n1 [Compound 72] | 5 | 30 | 20 | 20 | 40 | 40 | – | – | – | – | – | – | Canarygrass plant response rating (canarygrass; postemergence, 62 g ai/ha): 10; Plant response rating (scale of 0 to 100), Foxtail, Green (foxtail, green [2]): 98; Foxtail, Green plant response rating (foxtail, green [2]; [6]): 30; Plant response rating, Foxtail, Green (foxtail, green [2]; 13 to 15 days): 85; Foxtail, Green plant response rating (foxtail, green [2]; [7]): 90; Foxtail, Green plant response rating (foxtail, green [1]; postemergence, 62 g ai/ha): 40
5 | Cc1cc(C(=O)NCC(F)(F)F)nn1Cc1ccnc(C(F)(F)F)c1 [Compound 74] | 0 | 5 | 0 | 0 | 5 | 0 | – | – | – | – | – | – | Canarygrass plant response rating (canarygrass; postemergence, 62 g ai/ha): 0; Plant response rating (scale of 0 to 100), Foxtail, Green (foxtail, green [2]): 95; Foxtail, Green plant response rating (foxtail, green [2]; [6]): 85; Plant response rating, Foxtail, Green (foxtail, green [2]; 13 to 15 days): 95; Foxtail, Green plant response rating (foxtail, green [2]; [7]): 95; Foxtail, Green plant response rating (foxtail, green [1]; postemergence, 62 g ai/ha): 0
6 | CCc1cc(-c2ccc(C(F)(F)F)cc2)nn1Cc1ccnc(C(F)(F)F)c1 [Compound 110] | – | – | – | – | – | – | – | – | – | – | – | – | Plant response rating, Common Waterhemp (common waterhemp; [8]): 85; Plant response rating, Common Waterhemp (common waterhemp; [9]): 100; Plant response rating, Common Waterhemp (common waterhemp; [10]): 100; Plant response rating, Common Waterhemp (common waterhemp; [11]): 65; Plant response rating, Common Waterhemp (common waterhemp; [12]): 65; Plant response rating, Large Crabgrass (large crabgrass; [8]): 10; Plant response rating, Large Crabgrass (large crabgrass; [9]): 75; Plant response rating, Large Crabgrass (large crabgrass; [10]): 85; Plant response rating, Large Crabgrass (large crabgrass; [11]): 5; Plant response rating, Large Crabgrass (large crabgrass; [12]): 5
7 | CCc1cc(C(=O)NOC(C)C)nn1Cc1ccnc(OC(F)F)c1 [Compound 126] | – | – | – | – | – | – | 90 | 90 | 90 | 90 | 100 | 100 | –
8 | CCCc1cc(C(=O)NCC(F)(F)F)nn1Cc1ccnc(OC(F)F)c1 [Compound 127] | – | – | – | – | – | – | 90 | 90 | 90 | 90 | 100 | 100 | –
9 | CCOc1cc(C(=O)NCC(F)(F)F)nn1Cc1ccnc(OC(F)F)c1 [Compound 128] | – | – | – | – | – | – | 100 | 90 | 100 | 90 | 100 | 100 | –
10 | CCCNC(=O)c1cc(OCC)n(Cc2ccnc(OC(F)F)c2)n1 [Compound 136] | – | – | – | – | – | – | 100 | 80 | 100 | 90 | 100 | 100 | –
11 | CCCc1cc(C(=O)NC(C)C)nn1Cc1cc(C(F)(F)F)nn1C [Compound 201] | – | – | – | – | – | – | – | – | – | – | – | – | Plant response rating, Common Waterhemp (common waterhemp; Preemergence, 16 g ai/ha, scale 0 to 100): 0; Plant response rating, Common Waterhemp (common waterhemp; [9]): 75; Plant response rating, Common Waterhemp (common waterhemp; [10]): 80; Plant response rating, Common Waterhemp (common waterhemp; [17]): 100; Plant response rating, Common Waterhemp (common waterhemp; [12]): 5; Plant response rating, Large Crabgrass (large crabgrass; [9]): 70; Plant response rating, Large Crabgrass (large crabgrass; [10]): 100; Plant response rating, Large Crabgrass (large crabgrass; [17]): 100; Plant response rating, Large Crabgrass (large crabgrass; [12]): 0; Plant response rating, Large Crabgrass (large crabgrass; preemergence, scale 0 to 100, 100 is complete control): 35
12 | CCCc1cc(C(=O)NC2CC2)nn1Cc1ccnc(OC(F)F)c1 [Compound 205] | – | – | – | – | – | – | 90 | 70 | 90 | – | – | – | Galium plant response rating (galium; Postemergence, 125 g ai/ha, 0 to 100 scale, 0 no effect, 100 complete control): 90; Kochia plant response rating (0 to 100 scale) (kochia; 125 g ai/ha, visual injury approx. 10 days after treatment): 100
13 | CCc1cc(C(=O)NCC(F)(F)F)nn1Cc1ccnc(Br)c1 [Compound 224] | – | – | – | – | – | – | – | – | – | – | – | – | Plant response rating, Common Waterhemp (common waterhemp; [9]): 100; Plant response rating, Common Waterhemp (common waterhemp; [10]): 100; Plant response rating, Common Waterhemp (common waterhemp; [17]): 100; Plant response rating, Large Crabgrass (large crabgrass; [9]): 98; Plant response rating, Large Crabgrass (large crabgrass; [10]): 100; Plant response rating, Large Crabgrass (large crabgrass; [17]): 100
